According to publication PMC7033200, “Annexin A1 accounts for an anti-inflammatory binding target of sesamin metabolites” (NPJ Science of Food, 2020):

Tests used:
[1] = system: T1, recombinant ANX V; test: Affinity nanobeads binding assay with recombinant annexin V
T1 construct: purchased Abcam

[2] = system: extracellular ANX A1 release from U937 cells; test: Extracellular release of ANX A1 from U937 cells (ELISA); type: cell-based, human; settings: PMA/LPS-treated U937 cells
Protocol: For enzyme-linked immunosorbent assay (ELISA) assays, U937 cells (control or ANX A1 KD) were seeded on 96-well plates and stimulated by adding 100 nmol L^−1 phorbol myristate acetate (Sigma-Aldrich, MO, USA) for 24 h. The cells were treated for 12 h with LPS (100 ng mL^−1) with or without adding the indicated sesamin, SC1, or SC2 and/or PD98059 concentrations. The cell culture supernatants were collected, and TNFα or ANX A1 production was measured using ELISA (TNFα: R&D Systems; ANX A1: USCN, Wuhan, China) according to the manufacturer’s instructions.

[3] = system: CCl4-treated ANX A1-KO mice; test: CCl4-induced liver damage and inflammation in ANX A1-KO mice; type: in vivo, mouse (C57BL/6J); settings: SC1 50 mg kg^−1 intraperitoneally twice
From the text: ANX A1-deficient mice (C57BL/6J) were generated by homologous recombination at Trans Genic Inc. (Fukuoka, Japan), as shown in Fig. S4. The vector targeting ANX A1 for deleting the coding region (exons 3–6) containing selectable neomycin-resistance (Neo) and PGK promoter genes was used. The targeting vector contained the 3.0 kbp of the 5′ arm flanking sequence and 4.5 kbp of the 3′ arm flanking sequence. The PGK-Neor gene was deleted by crossing with the CAG-flp mouse.[58]
All protocols for animal procedures were approved by the Ethics Committee of Animal Experiments in accordance with the Internal Regulations on Animal Experiments at Keio University and Suntory Holdings Ltd, which are based on the Law for the Humane Treatment and Management of Animals (Law No. 105, 1 October 1973, as amended on 30 May 2014). Male C57BL/6J wild-type (WT) mice were purchased from CLEA Japan Inc. (Tokyo, Japan). WT and ANX A1-KO mice at 7 to 9 weeks of age received an intraperitoneal injection of vehicle (corn oil, 16.7 mL kg^−1) or CCl4 (50 μL kg^−1). To evaluate the effect of sesamin, vehicle (olive oil, 5 mL kg^−1) or sesamin (25 mg kg^−1) was orally administered twice at 1 h before and 7 h after CCl4 injection. To evaluate the effect of SC1, vehicle (ethanol dissolved in corn oil at a ratio of 1:19, 5 mL kg^−1) or SC1 (50 mg kg^−1) was intraperitoneally administered twice as mentioned above. Mice were euthanized after 12 or 24 h […] CCl4 injection before collecting blood and liver samples. Plasma AST, ALT, or LDH were measured using L-type AST J2, L-type ALT J2 or L-type LD J (Wako, Osaka, Japan), respectively. The liver tissues were fixed with 10% formalin, embedded in paraffin sectioned to 3–4 μm thickness and mounted on slides. Liver sections were de-paraffinized with xylene and re-hydrated with alcohols. The staining was performed with eosin solution for the cytoplasm and Mayer’s haematoxylin solution or monoclonal galectin-3 antibody (1:100, BioLegend, CA, USA). Slides were observed under a light microscope (BX52, Olympus, Japan), and images were analysed using LUMINA VISION (Mitani Corporation, Japan).
Production of TNFα or MCP-1 in the plasma or liver was measured using a V-PLEX Proinflammatory Panel 1 Mouse Kit or U-PLEX Mouse MCP-1 assay Kit (Meso Scale Diagnostics, USA), respectively. Plasma or liver tissues homogenised in phosphate-buffered saline (Nacalai Tesque) were applied into the pre-coated plate with antibodies against target proteins before labelling with secondary antibodies conjugated to chemiluminescence. The signal intensity was measured using an analyser (SECTOR Imager 6000, Meso Scale Diagnostics, USA).
Total RNA of the liver was extracted using an RNeasy Mini Kit (Qiagen, USA), and the cDNAs were prepared using High-Capacity cDNA Reverse Transcription Kits (Thermo Fisher Scientific, USA). Quantitative reverse transcription-PCR was performed according to the manufacturer’s instructions using the TaqMan® Gene Expression Assay System (Applied Biosystems, USA) with a 7900HT Fast Real Time PCR System (Applied Biosystems, USA). The levels of target mRNAs were normalised using the expression of the 18S ribosomal RNA. The primer IDs are listed in Supplementary Table 1.

[4] = system: ANX A1 mutants (G210W, F221S, and V251W); test: ITC binding analysis using recombinant ANX A1 point mutants; set-up: species or system human; settings: V251W in contrast with ANX A1 WT
Protocol: (§1) ITC experiments were performed at 298 K with ITC buffer (20 mmol L^−1 Tris-HCl (pH 7.5), 100 mmol L^−1 NaCl, 2% dimethyl sulfoxide) using a MicroCal iTC200 (Malvern). SC1 or SC2 were dissolved at 2 mmol L^−1 with ITC buffer and titrated into 1 μmol L^−1 of ANX A1 protein with or without 2 mmol L^−1 EDTA (for apo-ANX A1) or 3 mmol L^−1 CaCl2 (for Ca^2+-bound ANX A1). The titration was performed by injecting 2 µL of the syringe solution at intervals of 120 s. The binding isotherms were analysed using SEDPHAT.[54]
Supplementary Fi g u re 3. Isothermal titra tion calori met ry analyses using ANX A1 […]
Analyses of binding affinity between SC1 and ANX A1 (wild type (WT) or point mutants (G210W, F221S, or V251W)) using isothermal titration calorimetry ( ITC). […]
(1 picture or pasted object on this page, not shown here)

[5] = target: T2, ANX A1 (Homo sapiens, UniProt P04083); test: Isothermal titration calorimetry (ITC) binding to ANX A1
T2 construct: The ANX A1 cDNA fragment, full-length (1–346 a.a.) or deletion mutants; GST (pGEX-6P-1) (N, cleaved yes); made in house; host or cells: Escherichia coli BL21 (DE3)
T2 sequence (P04083 1-346): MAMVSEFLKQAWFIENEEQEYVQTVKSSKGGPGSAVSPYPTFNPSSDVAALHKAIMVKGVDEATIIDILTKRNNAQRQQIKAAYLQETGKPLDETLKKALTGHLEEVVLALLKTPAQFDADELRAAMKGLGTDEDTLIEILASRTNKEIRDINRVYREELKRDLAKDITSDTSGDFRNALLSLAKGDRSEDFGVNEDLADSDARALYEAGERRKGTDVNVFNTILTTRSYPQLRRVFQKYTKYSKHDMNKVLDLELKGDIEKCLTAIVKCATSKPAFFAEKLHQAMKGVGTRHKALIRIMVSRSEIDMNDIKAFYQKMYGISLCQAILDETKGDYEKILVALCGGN
Protocol: as §1

With `Oc1ccc(C2OCC3C(c4ccc5c(c4)OCO5)OCC23)cc1O` (stereo not drawn) [SC1, (7α,7′α,8α,8′α)-3′,4′-methylenedioxy-7,9′:7′,9-diepoxylignane-3,4-diol] the “binding of recombinant ANX V to beads” value [1] was “no binding”, the “cellular release of ANX A1” value [2] was “significantly enhanced” and the “MCP-1 expression in the liver” value ([3]; 12 h after CCl4, ANX A1-null) was “no effect was observed”. The “TNFα expression in the liver” value ([3]; 12 h after CCl4, ANX A1-null) was “no effect was observed”, the “plasma AST” value ([3]; 24 h, ANX A1-null) was “not” and the “binding activity to SC1 of ANX A1 mutants” value [4] was “disrupted the binding activity”. For the same molecule, the dH ([5]; 3 mmol L^-1 Ca^2+, ITC) was -452.11 kcal/mol, the dS ([5]; 3 mmol L^-1 Ca^2+, ITC) was -1491.41 cal/mol K and the Kd ([5]; Ca^2+ form of ANX A1, 3 mmol L^-1 CaCl2, ITC, 298 K, read-out: binding affinity (Kd)) was 2.77 µM. The “binding to apo-ANX A1” value ([5]; Ca^2+ free (EDTA), ITC) was “No binding”.
